Patent US4704403A, “3-(2,2,2-trisubstituted hydrazinium) propionates” (priority 1983, dated 1987)

What was measured:
[1] = test system: arrhythmia caused by introduction of calcium chloride; experiment: Antiarrhythmic activity on the model of arrhythmia caused by calcium chloride (antagonism towards calcium); assay type: in vivo, mice; settings: for Dose of calcium chloride causing arrhythmia: control 85.0; for Dose of calcium chloride causing heart arrest: control 100.0
Experimental: In experiments on white mice with a mass of 18-25 g narcotized with urethane an electrocardiogram was recorded in the second standard lead. A 2% solution of calcium chloride was introduced into the tail vein at a constant rate (0.01 ml for 2 seconds). The dose of calcium chloride causing arrhythmia and the dose causing heart arrest were determined. In experimental groups the test compounds were administered 20-40 minutes prior to the beginning of the experiment intraperitoneally.

[2] = Acute toxicity upon intraperitoneal administration to white mice; assay type: in vivo; settings: mouse, in vivo, ip, 14 days observation, average values with confidential limits at P=0.05
Experimental: (§1) The acute toxicity of the compounds according to the present invention was studied on white mice of both sexes with a mass of 20-25 g. A saturated aqueous solution of the compounds or a suspension in Tween-80 was administered to the animals intraperitoneally. The observation over the animals was carried out for 14 days. The results obtained were processed following the Litchfield-Wilkoxon method. As it follows from the data shown in Table 5 hereinbelow, the studied compounds have a very low acute toxicity, thus providing a large spectrum of the therapeutic effect.

white mice = experiment: as above; assay type: in vivo; settings: i.p.
Experimental: as §1

[3] = test system: hemodynamic effects of acetylcholine; experiment: Effect on vegetative responses: acetylcholine; assay type: in vivo, cats; settings: dose "-10" [sic] (unit not given); acetylcholine 0.1 μg/kg
Experimental: (§2) The effect of the compounds according to the present invention on the arterial pressure and vegetative responses has been studied in acute experiments on cats with a mass of 2.8-4.0 kg narcotized by α-glucochloralose (90 mg/kg) and urethane (100 mg/kg intraperitoneally).
(§3) The arterial pressure in the common carotid artery, breathing and electrocardiogram of the second standard lead were recorded.
(§4) The effect of the compounds according to the present invention on hemodynamic effects of acetylcholine (0.1 μg/kg) neoepinephrine (0.2 μg/kg), noradrenaline (1 μg/kg) and histamine (1.5 μg/kg) was also studied. In some experiments instead of neoepinephrine and noradrenaline adrenaline was used (1 μg/kg). The peripheral part of the vagus nerve was irritated by supromaximum square pulses of the frequency of 30 Hz and duration of 0.1 ms.

arterial pressure = experiment: Effect on the arterial pressure in narcotized cats; assay type: in vivo
Experimental: as §2, §3, §4

[4] = test system: hemodynamic effects of noradrenaline; experiment: Effect on vegetative responses: noradrenaline; assay type: in vivo, cats; settings: noradrenaline 1 μg/kg
Experimental: as §2, §3, §4

[5] = test system: hemodynamic effects of neoepinephrine; experiment: Effect on vegetative responses: neoepinephrine; assay type: in vivo, cats; settings: neoepinephrine 0.2 μg/kg
Experimental: as §2, §3, §4

[6] = test system: spontaneously hypertensive rats of the Akamoto-Aoki line; experiment: Systolic arterial pressure of spontaneously hypertensive rats upon a repeated peroral administration; assay type: in vivo
Experimental: Thus, after a four-days course of administration (once a day, per os) of the compounds according to the present invention an essential reduction of the arterial pressure in the test animals is observed which is not returned to the initial level even an expiration of four days after discontinuation of the preparation administration, whereas the hypotensive effect of nifedipine is manifested for only 8 hours.

[7] = test system: spontaneously hypertensive rats of the Akamoto-Aoki line; experiment: Hypotensive activity on spontaneously hypertensive rats at a single peroral administration; assay type: in vivo; settings: for Systolic arterial pressure: ethyl 40 mg/kg (initial 198), allyl 50 mg/kg (initial 184), benzyl 40 mg/kg (initial 196); for Systolic arterial pressure, percent in parentheses (decrease from initial): ethyl 40, allyl 50, benzyl 40 mg/kg
[8] = test system: hypertensive male rats of the Akamoto-Aoki line; experiment: Variation of arterial pressure upon intraperitoneal administration to hypertensive rats; assay type: in vivo
Experimental: The study of hypotensive properties of the compounds of this invention has been carried out of hypertensive male rats of the Akamoto-Aoki line aged 25-30 weeks. The animals were divided into groups (7-10 rats in each) and for 2 weeks before the beginning of the experiment they were subjected to an every-day training for adaptation to the unit for measurements of the arterial pressure. The systolic and diastolic arterial pressure were measured indirectly on the tail artery. The level of the arterial pressure prior to administration of the test compounds was measured by way of a triple determination thereof--2 days, one day and right before the administration of the preparation. The compounds were administered intraperitoneally in the form of a 2.5% aqueous solution or a 2.5% suspension in Twin-80 in the dose of 50 mg/kg. The measurement of the arterial pressure was effected 30 minutes, 1, 2, 3 and 4 hours and in some cases 24 hours after the administration of the preparation. For a number of compounds featuring a high efficiency, also determined was the dose causing reduction of the arterial pressure by 30% as compared with the starting level (ED30). The statistical processing of the data obtained was carried out using the Student certainty criterion.

Angiotension = experiment: Effect on vegetative responses: angiotensin; assay type: in vivo, cats; settings: dose 5 (unit not given)
[9] = dose "-10" [sic] (unit not given)
[10] = after four-days p.o. course, benzyl 40 mg/kg, allyl 50 mg/kg, nifedipine dose not given
[11] = p.o. once a day, benzyl 40 mg/kg, allyl 50 mg/kg, nifedipine dose not given
[12] = p.o., benzyl 40 mg/kg, allyl 50 mg/kg, nifedipine dose not given
[13] = 30 minutes, 50 mg/kg i.p. (nifedipine 1 mg/kg i.p.)
[14] = 1 hour, 50 mg/kg i.p. (nifedipine 1 mg/kg i.p.)
[15] = 2 hours, 50 mg/kg i.p. (nifedipine 1 mg/kg i.p.)
[16] = 4 hours, 50 mg/kg i.p. (nifedipine 1 mg/kg i.p.)

With CCCCCCCCCCCCCCCC[N+](C)(C)NCCC(=O)[O-] [3-(2,2-dimethyl-2-hexadecylhydrazinium)propionate] the “Dose of calcium chloride causing arrhythmia” value ([1]; compound dose 5 mg/kg i.p.) was 130.5, the “Dose of calcium chloride causing heart arrest” value ([1]; compound dose 5 mg/kg i.p.) was 140.6 and the “Dose of calcium chloride causing arrhythmia” value ([1]; compound dose 25 mg/kg i.p.) was 102.7. For the same compound, the “Dose of calcium chloride causing heart arrest” value ([1]; compound dose 25 mg/kg i.p.) was 124.5, the LD50 at 336 h [2] was 1450 mg/kg and the “Relative toxicity with respect to quinidine (LD50 / LD50 of quinidine)” value (white mice) was 9.3. For the same compound, the “Variation of the effect of acetylcholine” value [3] was -10%, the “Variation of arterial pressure” value (arterial pressure; dose 3 (unit not given)) was -5% and the “Variation of arterial pressure” value (arterial pressure; [9]) was -3%. The “Hemodynamic effect, Noradrenaline” value ([4]; dose 3 (unit not given)) was -15%, the “Hemodynamic effect, Noradrenaline” value [4, 9] was -80% and the “Hemodynamic effect, Neoepinephrine” value ([5]; dose 3 (unit not given)) was -10%. For the same compound, the “Hemodynamic effect, Neoepinephrine” value [5, 9] was -30%.
In the case of C=CC[N+](C)(C)NCCC(=O)[O-] [3-(2,2-dimethyl-2-allylhydrazinium)propionate semihydrate], the “Systolic arterial pressure, 5th day” value [6, 10] is reported as 126 mm Hg, the “Systolic arterial pressure, 8th day” value [6, 10] is reported as 168 mm Hg and the “Systolic arterial pressure, 10th day” value [6, 10] is reported as 175 mm Hg. The “Systolic arterial pressure, 2nd day after administration” value ([6]; p.o. once a day, allyl 50 mg/kg, nifedipine dose not given) was 132.8 mm Hg, the “Systolic arterial pressure, 1st day after administration” value ([6]; p.o. once a day, benzyl 40 mg/kg (initial 195.8), allyl 50 mg/kg (initial 176.6), nifedipine dose not given (initial 184.0)) was 150.6 mm Hg and the “Systolic arterial pressure, 2nd day before administration” value [6, 11] was 166.8 mm Hg. For the same compound, the “Systolic arterial pressure, 3rd day after administration” value [6, 11] was 118 mm Hg, the “Systolic arterial pressure, 4th day after administration” value [6, 11] was 118.6 mm Hg and the “Systolic arterial pressure, 4th day before administration” value [6, 11] was 129 mm Hg. For the same compound, the “Percent in parentheses (change of systolic pressure from initial), 2nd day after administration” value ([6]; p.o., allyl 50 mg/kg, nifedipine dose not given) was 25%, the “Percent in parentheses (change of systolic pressure from initial), 1st day after administration” value [6, 12] was 15% and the “Percent in parentheses (change of systolic pressure from initial), 2nd day before administration” value [6, 12] was 6%. For the same compound, the “Percent in parentheses (change of systolic pressure from initial), 3rd day after administration” value [6, 12] was 33%, the “Percent in parentheses (change of systolic pressure from initial), 4th day after administration” value [6, 12] was 33% and the “Percent in parentheses (change of systolic pressure from initial), 4th day before administration” value [6, 12] was 27%. The “Percent in parentheses (change of systolic pressure from initial), 5th day” value [6, 12] was 29%, the “Percent in parentheses (change of systolic pressure from initial), 8th day” value [6, 12] was 5% and the “Dose of calcium chloride causing arrhythmia” value ([1]; compound dose 5 mg/kg i.p.) was 99.6. For the same compound, the “Dose of calcium chloride causing heart arrest” value ([1]; compound dose 5 mg/kg i.p.) was 118.0, the “Dose of calcium chloride causing arrhythmia” value ([1]; compound dose 25 mg/kg i.p.) was 95.2 and the “Dose of calcium chloride causing heart arrest” value ([1]; compound dose 25 mg/kg i.p.) was 103.0. For the same compound, the Systolic arterial pressure ([7]; 3 hours after single p.o.) was 153 mm Hg, the “Systolic arterial pressure, percent in parentheses (decrease from initial)” value ([7]; 3 hours after single p.o.) was 17% and the Systolic arterial pressure ([7]; 5 hours after single p.o.) was 155 mm Hg. For the same compound, the “Systolic arterial pressure, percent in parentheses (decrease from initial)” value ([7]; 5 hours after single p.o.) was 16%, the Systolic arterial pressure ([7]; 24 hours after single p.o.) was 170 mm Hg and the “Systolic arterial pressure, percent in parentheses (decrease from initial)” value ([7]; 24 hours after single p.o.) was 8%. The “Average variation of the diastolic arterial pressure” value [8, 13] was -10 % of the initial, the “Average variation of the systolic arterial pressure” value [8, 13] was -12 % of the initial and the “Average variation of the diastolic arterial pressure” value [8, 14] was -23 % of the initial. For the same compound, the “Average variation of the systolic arterial pressure” value [8, 14] was -12 % of the initial, the “Average variation of the diastolic arterial pressure” value [8, 15] was -29 % of the initial and the “Average variation of the systolic arterial pressure” value [8, 15] was -18 % of the initial. For the same compound, the “Average variation of the diastolic arterial pressure” value [8, 16] was -31 % of the initial, the “Average variation of the systolic arterial pressure” value [8, 16] was -14 % of the initial and the “Average variation of the diastolic arterial pressure” value ([8]; 24 hours, 50 mg/kg i.p.) was -7 % of the initial. For the same compound, the “Average variation of the systolic arterial pressure” value ([8]; 24 hours, 50 mg/kg i.p.) was -3 % of the initial, the LD50 at 336 h [2] was 10600 mg/kg and the “Relative toxicity with respect to quinidine (LD50 / LD50 of quinidine)” value (white mice) was 67.9. For the same compound, the “Hemodynamic effect, Neoepinephrine” value ([5]; dose 5 (unit not given)) was -20% and the “Hemodynamic effect, Angiotension” value (Angiotension) was -70%.
